Test results published in PubChem BioAssay AID248 (DTP/NCI, 2004).
Inconclusive results and toxic doses are left out. Rule as the data show it: active = T/C of 150% or more; inactive = T/C below 125%.

Tested on: L1210 leukemia ip in BDF1 mice, survival T/C
Experiment: NCI In Vivo Anticancer Drug Screen. Data for tumor model L1210 Leukemia (intraperitoneal) in B6D2F1 (BDF1) mice
Details: endpoint: mean survival time, higher = longer survival
Method in brief: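 Mice bearing the transplanted tumor received compound or vehicle. Survival of the treated group was divided by that of the vehicle-treated control group to give the ratio.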

[1] = dose: 100.0 mg/kg/injection, schedule: Q01DX001 (ip), vehicle: saline
[2] = dose: 200.0 mg/kg/injection, schedule: Q01DX001 (ip), vehicle: saline
[3] = dose: 400.0 mg/kg/injection, schedule: Q01DX001 (ip), vehicle: saline
[4] = dose: 100.0 mg/kg/injection, schedule: Q01DX009 (ip), vehicle: saline with Tween-80
[5] = dose: 200.0 mg/kg/injection, schedule: Q01DX009 (ip), vehicle: saline with Tween-80
[6] = dose: 100.0 mg/kg/injection, schedule: Q01DX009 (ip), vehicle: Klucel (hydroxypropylcellulose) (HPC)
[7] = dose: 400.0 mg/kg/injection, schedule: Q01DX009 (ip), vehicle: Klucel (hydroxypropylcellulose) (HPC)

Measured: T/C

CCOC(=O)/C=C(\C)C(C)(C)C(C)=O
inactive: [1] 90 % of control | [2] 101 % of control | [3] 98 % of control

Cc1ccc(-c2cc(-c3ccccc3)n(-c3ccccc3)n2)cc1
inactive: dose: 100.0 mg/kg/injection, schedule: Q01DX009 (ip), vehicle: other 103 % of control | dose: 200.0 mg/kg/injection, schedule: Q01DX009 (ip), vehicle: other 96 % of control | dose: 400.0 mg/kg/injection, schedule: Q01DX009 (ip), vehicle: other 95 % of control

CC(=O)Nc1ccc(S(=O)(=O)Nc2ccccc2C(F)(F)F)cc1
inactive: [4] 93 % of control | [5] 104 % of control | dose: 400.0 mg/kg/injection, schedule: Q01DX009 (ip), vehicle: saline with Tween-80 91 % of control

CC(C)C(=O)Nc1cccc(O)c1
inactive: [4] 90 % of control | [5] 90 % of control

O=S(=O)(O)Cc1c(O)ccc2ccccc12
inactive: dose: 25.0 mg/kg/injection, schedule: Q01DX009 (ip), vehicle: Klucel (hydroxypropylcellulose) (HPC) 96 % of control | dose: 50.0 mg/kg/injection, schedule: Q01DX009 (ip), vehicle: Klucel (hydroxypropylcellulose) (HPC) 104 % of control | [6] 96 % of control | dose: 100.0 mg/kg/injection, schedule: Q04DX002 (ip), vehicle: saline with Tween-80 100 % of control | dose: 200.0 mg/kg/injection, schedule: Q04DX002 (ip), vehicle: saline with Tween-80 100 % of control | dose: 400.0 mg/kg/injection, schedule: Q04DX002 (ip), vehicle: saline with Tween-80 103 % of control

Cc1cc(C)nc(NC(=O)Nc2ccccc2)c1
inactive: [6] 93 % of control | dose: 100.0 mg/kg/injection, schedule: Q04DX003 (ip), vehicle: Klucel (hydroxypropylcellulose) (HPC) 94 % of control | dose: 200.0 mg/kg/injection, schedule: Q04DX003 (ip), vehicle: Klucel (hydroxypropylcellulose) (HPC) 92 % of control | [7] 100 % of control | dose: 400.0 mg/kg/injection, schedule: Q04DX003 (ip), vehicle: Klucel (hydroxypropylcellulose) (HPC) 89 % of control

CC(C)CCOC(=O)C(O)C(C)(Cl)c1ccccc1 (stereo not given)
inactive: dose: 100.0 mg/kg/injection, schedule: Q04DX002 (ip), vehicle: Klucel (hydroxypropylcellulose) (HPC) 111 % of control | dose: 200.0 mg/kg/injection, schedule: Q04DX002 (ip), vehicle: Klucel (hydroxypropylcellulose) (HPC) 91 % of control | dose: 400.0 mg/kg/injection, schedule: Q04DX002 (ip), vehicle: Klucel (hydroxypropylcellulose) (HPC) 100 % of control

CC1(c2ccc(Cl)cc2)NC(=O)N(CC(N)=O)C1=O (stereo not given)
inactive: dose: 100.0 mg/kg/injection, schedule: Q04DX003 (ip), vehicle: saline with Tween-80 105 % of control | dose: 400.0 mg/kg/injection, schedule: Q04DX003 (ip), vehicle: saline with Tween-80 122 % of control

Nc1ccc(CCCCc2ccc(Cl)cc2Cl)cc1
inactive: dose: 50.0 mg/kg/injection, schedule: Q01DX001 (ip), vehicle: Klucel (hydroxypropylcellulose) (HPC) 100 % of control | dose: 50.0 mg/kg/injection, schedule: Q01DX009 (ip), vehicle: saline with Tween-80 96 % of control | dose: 100.0 mg/kg/injection, schedule: Q01DX001 (ip), vehicle: Klucel (hydroxypropylcellulose) (HPC) 94 % of control | [4] 102 % of control | dose: 200.0 mg/kg/injection, schedule: Q01DX001 (ip), vehicle: Klucel (hydroxypropylcellulose) (HPC) 109 % of control

[O-][N+](=C\c1ccccc1)/[N+]([O-])=C\c1ccccc1
inactive: [1] 98 % of control | [2] 95 % of control | [3] 98 % of control

CC(=O)OC(C)c1ccccc1 (stereo not given)
inactive: [6] 112 % of control | dose: 200.0 mg/kg/injection, schedule: Q01DX009 (ip), vehicle: Klucel (hydroxypropylcellulose) (HPC) 106 % of control | [7] 101 % of control

CN1C2CCC1CC(=O)C2
inactive: dose: 75.0 mg/kg/injection, schedule: Q01DX001 (ip), vehicle: saline 103 % of control | dose: 150.0 mg/kg/injection, schedule: Q01DX001 (ip), vehicle: saline 102 % of control
